Source: patent US20130078185A1, “NITROIMIDAZOLE DERIVATIVES” (GE HEALTHCARE LIMITED, priority 2010, published 2013)
Converted amounts (≈) assume the structure as drawn. Like-named read-outs stand apart in the source and are kept apart here.

Tests used:
[1] = test system: Mycobacterium tuberculosis strain H37Rv; experiment: microplate alamar blue assay (MABA) MIC; assay type: cell-based; conditions: M. tuberculosis H37Rv, BACTEC 12B medium, MIC90 = 90% reduction in fluorescence relative to controls
Method: Screening was done to get MIC for M. tuberculosis using both the microplate alamar blue assay (MABA) and low-oxygen recovery assay (LORA).
The initial screen was conducted against Mycobacterium tuberculosis strain H37Rv (American Type Culture Collection number 27294) in BACTEC 12B medium (Becton-Dickinson) using the MABA. Compounds were tested in ten 2-fold dilutions, typically from 100 μg/mL to 0.19 μg/mL. The MIC90 is defined as the concentration effecting a reduction in fluorescence of 90% relative to controls. This value is determined from the dose-response curve using a curve-fitting program. Any MIC90 value of ≦10 μg/mL was considered “active” for antitubercular activity. 3(h) Method for Determining IC50

[2] = test system: VERO cells; experiment: cells; assay type: cell-based, African green monkey (Cercopithecus aethiops); conditions: Chlorocebus sabaeus

For C[C@]1(COc2ccccc2)Cn2cc([N+](=O)[O-])nc2O1 [Example 1, (R)-2-Methyl-6-nitro-2-(phenoxymethyl)-2,3-dihydroimidazo[2,1-b]oxazole], the MIC [1] was 1.33 µg/mL (≈ 4.83 µM) and the IC50 ([2]; Vero, 72 h) was > 50 µg/mL.
In the case of C[C@]1(COc2ccc(I)cc2)Cn2cc([N+](=O)[O-])nc2O1 [Example 2, (R)-2-((4-Iodophenoxy)methyl)-2-methyl-6-nitro-2,3-dihydroimidazo[2,1-b]oxazole], the MIC [1] is reported as < 0.195 µg/mL and the IC50 ([2]; VERO cell cytotoxicity, 72 hours exposure, ATP viability readout, read-out: IC50) is reported as > 50 µg/mL.
